# Source: US20060269928A1, “Compositions, methods and apparatus for supercritical fluid virus inactivation” (Aphios Corporation, priority 2005, published 2006)
# Values joined by “and” are separate entries in the source; they are usually repeats but may differ in a detail not shown here. Identical values can stand only once. Like-named read-outs stand apart in the source and are kept apart here. Marks after values point to notes of the source that are not given here.
# Key:
# HIV-1 p24 = settings: 3,000 psig, 22 °C, single-stage; for Δp24 [% Change]: versus t & T control
# [1] = system: vesicular stomatitis virus (VSV); type: cell-based; settings: for −log10 reduction: 4,000 psig, <1 min; for −log10 Kill: 3,000 psig, 50 °C, single stage, matrix FBS
# HIV-1Δtat-rev = settings: 3,000 psig, 22 °C, single-stage; for −Log10 Inactivation: versus time and temperature control; for Log10 TCID50/ml (CFI-treated): virus supernatant diluted 1:10 in RPMI
# [2] = system: murine leukemia virus (MuLV); assay: SCoNCF CFI inactivation of murine leukemia virus in laminar flow injection unit; type: cell-based, murine-C retrovirus (MuLV); settings: 2,000 psig, 22 °C, <1 min
# [3] = system: encephalomyocarditis (EMC) virus; type: cell-based
# Hepatitis A (HAV) virus = type: cell-based
# Poliovirus = type: cell-based; settings: 3,000 psig, 50 °C, single stage, matrix FBS
# Sindbis = type: cell-based
# Reovirus = type: cell-based
# parvovirus B19 [4] = assay: B19 DNA titre of CFI-treated plasma samples; design: species or system human parvovirus B19; settings: 206 bars, 4 ml/min
# Method: The conditions of different experiments performed for NIBSC, London, England with parvovirus B19-spiked in human plasma samples free of B19 antibodies are recorded in Table 16. […] Five or six samples were produced in each of the six experiments. A 2.5 ml aliquot of the feed was taken at the start of the treatment and stored at 4° C. during the run (named “before”) and a second 2.5 ml sample was placed at the same temperature as the SCoNCF system for the same duration as a control (named “time and temperature”). Once the system (isobaric chamber, connecting lines, valves and gauges) was pressurized with the supercritical fluid, the sample was pumped through the isobaric chamber at the rate of 4 ml/min. […] Finally, the system was depressurized to atmospheric pressure (1.01 bars).
# parvovirus B19 [5] = assay: B19 infectivity assay of CFI-treated plasma samples; type: cell-based, human parvovirus B19; settings: 206 bars; for Infectious Units per ml, CFI-Treated Samples: 4 ml/min
# Human Adenovirus, Type 5 = type: cell-based
# TGE = type: cell-based
# [6] = system: Bovine Diarrhea Virus (BVD); type: cell-based
# [7] = Expt 01: 50 °C, 2 stages, human plasma
# [8] = Expt 02/04: 25 °C, 1 stage, volumetric average of two samples
structure (smiles),measurement,setting,value
"[N-]=[N+]=O [NITROUS OXIDE, nitrous oxide]",p24 [CFI-treated],HIV-1 p24,70 ng/mL
same,Δp24 [% Change],HIV-1 p24,+25%
same,−log10 reduction,"[1]; 40 °C, 1 stage",2.5
same,−log10 reduction,"[1]; 40 °C, 2 stages",>5.5
same,inactivation,"[1]; 5,000 psig, 22 °C",~2 logs
same,average inactivation,"[1]; 5,000 psig, 40 °C",4 logs
same,−Log10 Inactivation,HIV-1Δtat-rev,>2.8
same,Log10 TCID50/ml (CFI-treated),HIV-1Δtat-rev,undetected
same,−log10 reduction,[2]; 1 stage,2.3 and 2.0
same,−log10 reduction,"[2]; 1 stage, listed as nitrous oxide",about 2
same,−log10 reduction,[2]; 2 stages,>5.5
same,−log10 reduction,"[2]; 2 stages, listed as nitrous oxide",greater than 5.5
"FC(F)Cl [FREON-22, hydrodifluorochloromethane]",EMC inactivated on the average,[3],~6 logs
same,EMC inactivation on the average,[3],5.7 logs
same,increase of inactivation for every 10 °C increase in temperature,[3],~1 log
same,−log10 Kill,Hepatitis A (HAV) virus,1.3 and 1.0
same,−log10 Kill,Poliovirus,4.1 and 4.2
same,−log10 Kill,Poliovirus; listed as Freon-22,4.1 and 4.2
same,−log10 Kill,Sindbis,>6.5
same,−log10 Kill,Reovirus,0.9 and 1.0
same,"B19 DNA Titre (IU/ml), CFI-Treated Samples",parvovirus B19 [4]; [7],5 × 10^10 IU/ml
same,"B19 DNA Titre (IU/ml), CFI-Treated Samples",parvovirus B19 [4]; [8],2 × 10^11* IU/ml
same,p24 [CFI-treated],HIV-1 p24,112 ng/mL
same,Δp24 [% Change],HIV-1 p24,−7%
same,change in infectivity titer compared with the untreated sample,"parvovirus B19 [5]; 50 °C, two-stage laminar flow CFI unit",~2 log10
same,"Infectious Units per ml, CFI-Treated Samples",parvovirus B19 [5]; [7],5 × 10^3 Infectious Units per ml
same,"Infectious Units per ml, CFI-Treated Samples",parvovirus B19 [5]; [8],2 × 10^5* Infectious Units per ml
same,−log10 Kill,"Human Adenovirus, Type 5",>5.3 and >5.1
same,−log10 Kill,[1],>6.5 and >6.6
same,−log10 Kill,[1]; listed as Freon-22,> 6.6 and > 6.5
same,−log10 Kill,TGE,>2.5 and >2.6
same,−log10 Kill,[6],2.3
same,−Log10 Inactivation,HIV-1Δtat-rev,>5.1
same,Log10 TCID50/ml (CFI-treated),HIV-1Δtat-rev,undetected
"FC(F)F [Fr-23, trifluoromethane]",EMC inactivated on the average,[3],~3 logs
same,"B19 DNA Titre (IU/ml), CFI-Treated Samples",parvovirus B19 [4]; [8],2.5 × 10^10* IU/ml
same,p24 [CFI-treated],HIV-1 p24,20 ng/mL
same,Δp24 [% Change],HIV-1 p24,+43%
same,"Infectious Units per ml, CFI-Treated Samples",parvovirus B19 [5]; [8],1.7 × 10^6* Infectious Units per ml
same,−Log10 Inactivation,HIV-1Δtat-rev,>3.7
same,Log10 TCID50/ml (CFI-treated),HIV-1Δtat-rev,undetected
N#N [N2],p24 [CFI-treated],HIV-1 p24,143 ng/mL
same,Δp24 [% Change],HIV-1 p24,+34%
same,−Log10 Inactivation,HIV-1Δtat-rev,>5.1
same,Log10 TCID50/ml (CFI-treated),HIV-1Δtat-rev,undetected
"CCC [C3H8, Propane]",p24 [CFI-treated],HIV-1 p24,175 ng/mL
same,Δp24 [% Change],HIV-1 p24,+20%
same,−Log10 Inactivation,HIV-1Δtat-rev,0.9
same,Log10 TCID50/ml (CFI-treated),HIV-1Δtat-rev,4.1
"O=C=O [CO2, carbon dioxide]",p24 [CFI-treated],HIV-1 p24,15 ng/mL
same,Δp24 [% Change],HIV-1 p24,+7%
same,−Log10 Inactivation,HIV-1Δtat-rev,>3.7
same,Log10 TCID50/ml (CFI-treated),HIV-1Δtat-rev,undetected
FC(Cl)C(F)(F)F (stereo not drawn) [Fr-124],−log10 Kill,[3],0.5 and 0.4
